{"source": "patent US8729048B2", "about": "“Methods and materials for assessing responsiveness to PARP inhibitors and platinating agents” (Mayo Foundation for Medical Education and Research, priority 2011, dated 2014)", "type_in_all_cases": "cell-based", "key": {"[1]": {"system": "DNA-PK substrates (DNA-PKcs Thr2609, Histone H2AX Ser139) in PEO1 cells", "experiment": "Immunoblotting for phosphorylation of DNA-PK substrates", "conditions": "72 hours, with 20 μM ABT-888, 500 nM DNA-PKi or 5 μM ATMi", "protocol": "FIG. 2. DNA-PK is activated following PARP inhibitor exposure in PEO1 cells. (A) Western blots for poly(ADP-ribose) polymer (pADPr) and phosphorylation of DNA-PK substrates (DNA-PKcs autophosphorylation at Thr^2609 and Histone H2AX at Ser^139) in PEO1 cells following 72 hours exposure to increasing concentrations of ABT-888 (0, 0.625, 1.25, 2.5, 5, 10, 20, and 40 μM). Hsp90, total DNA-PKcs, and Histone H1 are used as loading controls. (B) Phosphorylation of DNA-PK substrates after treatment for 72 hours with diluent (0.2% DMSO, lanes 1 and 4), 500 nM DNA-PK inhibitor AZ12594248 (DNA-PKi, lanes 2 and 5), or 5 μM ATM inhibitor KU55933 (ATMi, lanes 3 and 6) alone (lanes 1-3) or in combination with 20 μM ABT-888 (lanes 4-6). (C) Quantitation of cells positive for phospho-H2AX foci in PEO1 and PEO4 cells, following treatment with DMSO, 500 nM DNA-PKi, 20 μM ABT-888 (ABT), ABT-888 and DNA-PKi, 50 μM Etoposide (Etop), or 5 Gy ionizing radiation (IR). Cells were exposed to ABT-888 and/or DNA-PKi for 72 hours, etoposide for 1 hour, or allowed to recover for 1 hour after IR. Results are reported as mean±SEM of 3 independent experiments. (D) Confocal images of PEO1 cells treated as in […]. Phospho-Ser^139-H2AX is shown in green, phospho-Thr^2609-DNA-PKcs in red, and Hoechst 33258 in blue.\nCells were washed twice with calcium- and magnesium-free Dulbecco's phosphate-buffered saline (PBS) and solubilized in 6 M guanidine hydrochloride containing 250 mM Tris-HCl, pH 8.5 at 20° C., 10 mM EDTA, 1% (v/v) 2-mercaptoethanol, and 1 mM freshly added phenylmethylsulfonyl fluoride. After preparation for electrophoresis as described elsewhere (Kaufmann et al., Blood, 89:2098-2104 (1997)), aliquots containing 50 μg of protein (determined by the bicinchoninic acid method—S10) were separated on SDS-polyacrylamide gels containing 8% (w/v) acrylamide, electrophoretically transferred to nitrocellulose, and probed with immunological reagents as described elsewhere (Kaufmann, Anal. Biochem., 296:283-286 (2001)). […]"}, "[2]": {"system": "BRCA2-deficient PEO1 cells", "experiment": "Clonogenic assay, PEO1", "protocol": "(§1) FIG. 5. NHEJ is a major contributor to PARP inhibitor effects in BRCA2-deficient cells. (A) Western blots showing knockdown of Ku80 in PEO1 and PEO4 cells. (B) Clonogenic survival of PEO1 and PEO4 cells from (A), which were treated with the indicated ABT-888 concentration for 72 hours, washed, and allowed to form colonies. (C) Western blots following treatment with siRNA targeting luciferase (control), Ku80, PARP1, or both Ku80 and PARP1. (D) Clonogenic viability of PEO 1 and PEO4 cells from (C). Following knockdown, cells were plated onto triplicate plates and allowed to form colonies. (E) Clonogenic survival of PEO1 cells following Artemis knockdown. After treatment with the indicated siRNA, plates were treated with indicated concentration of ABT-888 for 72 hours, washed, and allowed to form colonies. Inset, Western blots showing knockdown using luciferase (control) or Artemis siRNAs in PEO1 cells. (F) Clonogenic survival of PEO1 and PEO4 cells treated for 72 hours with ABT-888 in combination with diluent or 500 nM DNA-PKi. All results are reported as means of triplicate plates±SEM, and are representative of 3 independent experiments.\nFIG. 13. DNA-PK inhibition diminishes the lethality of multiple PARP inhibitors in PEO1 cells. (A) Representative clonogenic plates after PEO1 cells were treated with ABT-888 (0, 5, or 20 μM) with or without 500 nM DNA-PKi. (B, C) Bar graphs comparing clonogenic survival of PEO1 cells exposed to two PARP inhibitors with or without 500 nM DNA-PKi. The PARP inhibitors used for these assays are ABT-888 (B) and AZD2281/olaparib (C). Results are reported as mean±SEM of triplicate plates.\nFIG. 18. Artemis knockdown confers resistance to PARP inhibition and cisplatin in BRCA2-deficient/mutant cells. Clonogenic survival assays of PEO1 shRNA lines continuously exposed to ABT-888 (A) or cisplatin (B), or exposed to ionizing radiation (C). (D-F) Clonogenic survival assays of CAPAN1 shRNA lines exposed to ABT-888 (D), cisplatin (E), or exposed to ionizing radiation (F).\n(§2) Colony formation assays were performed on siRNA-transfected PEO1 and PEO4 cells 48 hours after the second transfection. Cells were trypsinized and plated at 750 cells/plate in triplicate 60-mm dishes containing medium A, allowed to grow 10-14 days, and stained with Coomassie Brilliant Blue. Colonies containing ≧50 cells were scored manually. To assess methyl methanesulfonate (MMS) sensitivity, PEO1 or PEO4 cells were incubated for 48 hours after the second siRNA treatment, plated onto 60-mm dishes, allowed to adhere for 4 hours, exposed to the indicated concentration of MMS (Sigma-Aldrich) for 1 hour, washed with sterile RPMI 1640, and allowed to grow into colonies in medium A. For drug treatment, cells (without siRNA) were allowed to adhere for 4-6 hours, then treated with the indicated concentrations of ABT-888 and/or AZ12594248 for 72 hours. Following drug treatment, cells were washed with drug-free RPMI 1640, cultured for 10-14 days in medium A, and stained. For HCC1937 and HCC1937/BRCA1 cells, a similar procedure was used with several changes: 1000 cells were plated in medium B, and treatment was continuous for 16-20 days. M059J and M059J+DNA-PKcs were plated at 1000 cells per plate in medium C and treated for 48 hours. GM16666 and 16667 were plated at 1000 cells per plate in medium D and treated for 48 hours."}, "[3]": {"system": "BRCA2-positive PEO4 cells", "experiment": "Clonogenic assay, PEO4", "conditions": "XRCC1 siRNA, 1 hour exposure", "protocol": "as §1\nas §2, with “Following drug treatment, cells were washed with drug-free RPMI 1640, cultured for 10-14 days in medium A, and stained. For HCC1937 and HCC1937/BRCA1 cells, a similar procedure was used with several changes: 1000 cells were plated in medium B, and treatment was continuous for 16-20 days. M059J and M059J+DNA-PKcs were plated at 1000 cells per plate in medium C and treated for 48 hours. GM16666 and 16667 were plated at 1000 cells per plate in medium D and treated for 48 hours.” left out"}}, "data": [{"smiles": "O=c1cc(-c2cccc3c2Sc2ccccc2S3)oc(N2CCOCC2)c1", "note": "[KU55933]", "values": [{"measurement": "effect on ABT-888-induced phosphorylation of DNA-PKcs and H2AX", "setting": "[1]", "result": "did not"}]}, {"smiles": "COS(C)(=O)=O", "note": "[methane methylsulfonate, methyl methanesulfonate]", "values": [{"measurement": "clonogenic sensitivity after XRCC1 knockdown", "setting": "[2]; PEO1 cells, XRCC1 siRNA, 1 hour exposure", "result": "sensitized"}, {"measurement": "clonogenic sensitivity after XRCC1 knockdown", "setting": "[3]", "result": "sensitized"}]}, {"smiles": "N.N.[Cl][Pt][Cl]", "note": "[cisplatin]", "values": [{"measurement": "clonogenic sensitivity after stable Artemis knockdown", "setting": "[2]; PEO1 shRNA lines, continuous exposure", "result": "conferred resistance"}]}]}
